Assay results published in patent US20260297136A1, “PEPTIDES WITH LIPOLYTIC, ANTI-LIPOGENIC, ANTIFIBROTIC AND ANTI-INFLAMMATORY ACTIVITY” (FUNDACIÓ HOSPITAL UNIVERSITARI VALL D'HEBRON - INSTITUT DE …, priority 2023, published 2026).

Experiments:
HepG2 cells = test: Hepatic lipogenesis in HepG2 cells induced by 30 mM fructose (ACC and PPARγ mRNA), Example 3; format: cell-based, human; conditions: 5 days
Experimental: FIG. 2. Human hepatoblastoma cell line HepG2 was treated with vehicle (DMSO) in the absence or presence of 30 mM fructose and Telmisartan (5 μg/ml), Semaglutide (10 nM) or GP6 (10 or 40 μg/ml) for 5 days. RNA was extracted and mRNA levels of Acetyl-CoA Carboxylase (ACC) (panel A) and Peroxisome proliferator-activated receptor gamma (PPARγ) (panel B) relative to 18S were measured by RTPCR.
Cell culture reagents were from Life Technologies Inc (Invitrogen SA, Barcelona, Spain). HepG2 hepatoblastoma cells (cat. no. HB-8065; ATCC, LGC Standards SLU, Barcelona, Spain) were maintained in Dulbecco's modified Eagle medium (DMEM) supplemented with 10% fetal bovine serum and antibiotics. HepG2 cells were cultured for 5 day in the absence or presence of 30 mM fructose. Cells cultured in 30 mM fructose were daily treated with vehicle, Telmisartan, Semaglutide or GP6. LX-2 human hepatic stellate cells (SCC064) were maintained in DMEM supplemented with 2% fetal bovine serum and antibiotics. For experiments, LX-2 were cultured for 24 h in DMEM 0.2% FBS and treated for 24 h with vehicle or TGFβ1 (20 ng/ml) in the absence or presence of GP6 (10 or 40 μg/ml). At the end of the experiment's cells were harvested for gene expression analysis.
Total RNA was extracted from HepG2 and LX-2 cells using TRIzol reagent (Invitrogen SA). Reverse transcription was performed at 42° C. for 50 minutes using […] of total RNA, 200 U of Superscript II, and an oligo-dT primer and reagents provided by Invitrogen. […] Results were analyzed using the 7000 Sequence Detection System program (Applied Biosystems, Thermo Fisher Scientific, Barcelona, Spain) (Sex Hormone-Binding Globulin Reduction in Metabolic Disorders May Play a Role in NAFLD Development.Saez-Lopez C, Barbosa-Desongles A, Hernandez C, Dyer R A, Innis S M, Simo R, Selva D M. Endocrinology. 2017 Mar. 1; 158(3):545-559. doi: 10.1210/en.2016-1668).

[1] = system: obesity and fatty liver disease mouse model; test: Preventive effects in an obesity and fatty liver disease mouse model, Example 4; format: in vivo, C57BL6/J male mice; conditions: 20 mg/kg/day sc, 8 weeks
Experimental: C57BL6/J male mice were purchased and kept for quarantine and acclimatization for a period of about 7 days before initiation of every experiment. Mice were housed in clean and sterilized mice cages and maintained in a controlled environment with 22+3° C. temperature, 50+20% humidity, a light/dark cycle of 12 hours each and 15-20 fresh air changes per hour.
For Obesity and NAFLD induction, the animals were fed ad libitum, either with chow diet (150SP-10, Safe Diets) or 45% high-fat diet (TD.190179, Envigo) plus 30% fructose (F0127, Sigma Aldrich) in drinking water for 8 weeks in the daily presence of vehicle or a subcutaneous injection of GP6 (20 mg/kg/day). A group of mice (n=18) was randomly divided in two groups of 9 mice each. Both groups were fed with high fat diet and 30% fructose in the drinking water for 8 weeks to develop obesity and fatty liver disease. One group was treated with daily subcutaneous injections of vehicle (water) and the other with daily subcutaneous injection of GP6 (20 mg/kg/day) during the 8 weeks that last the experiment.
At the end of the experiment mice were sacrificed, serum samples were extracted, tissues were weighted and part was fixed in paraformaldehyde for histology studies and part immediately frozen at −80 C for mRNA and protein expression studies as well as assessment of triglycerides.
For histological studies, livers and adipose tissue were fixed in 4% paraformaldehyde for 24 hours and embedded in paraffin. Serial […] sections were used for histological examination and stained with hematoxylin eosin (H&E) and Picrosirius red for histological examination following standard procedures. Briefly, sections were alcohol-xylol hydrated at room temperature, and subsequently, they were stained at room temperature in a solution of 0.1% Direct Red 80 (Sigma-Aldrich) in a saturated aqueous solution of [COMPOUND LEFT OUT] (Sigma-Aldrich) for 1 h. Following that, sections were rinsed twice in 0.5% acetic acid or 5 min, alcohol-xylol dehydrated and covered with Eukitt mounting medium (Sigma-Aldrich). These sections were examined with an Olympus BX61 microscope. Six random fields at 4× magnification from each slice were quantified using ImageJ software to determine the liver collagen deposition as the red stained area in the image. The stage of liver steatosis and/or fibrosis was assessed blinded by an experienced pathologist according to the NASH-clinical research network scoring system (Design and validation of a histological scoring system for nonalcoholic fatty liver disease. Kleiner D E, Brunt E M, Van Natta M, Behling C, Contos MJ, Cummings O W, Ferrell L D, Liu Y C, Torbenson M S, Unalp-Arida A, Yeh M, McCullough A J, Sanyal AJ; Nonalcoholic Steatohepatitis Clinical Research Network. Hepatology. 2005 June; 41(6):1313-21. doi: 10.1002/hep.20701; Transforming growth factor-beta 1: A new factor reducing hepatic SHBG production in liver fibrosis. Briansó-Llort L, Fuertes-Rioja L, Ramos-Perez L, Salcedo-Allende M T, Hernandez C, Simo R, Selva D M. J Cell Physiol. 2022 September; 237(9):3598-3613. doi: 10.1002/jcp.30818). […]
Hepatic TG content was measured from liver extracts using a Triglyceride Assay Kit (ab65336) following the manufacture's instructions.
Total RNA was extracted from mouse tissues using TRIzol reagent (Invitrogen SA). Reverse transcription was performed at 42° C. for 50 minutes using […] of total RNA, 200 U of Superscript II, and an oligo-dT primer and reagents provided by Invitrogen. An aliquot of the reverse transcription product was amplified in a […] reaction using SYBRGreen (Invitrogen SA) with appropriate oligonucleotide primer pairs corresponding mouse ACC, FAS, ACLY, PPARG, Col1A1, F4/80, TNFα, IL1β, IL6, TGFβ1, Leptin, Adiponectin and 18S (shown in table 7). […]

[2] = blind pathologist, histology reduction confirmed

**Q.** What does the source list for `CC[C@@H](C)[C@@H](NC(=O)[C@H](NC(=O)CNC(=O)[C@@H](CCC(=O)O)NC(=O)[C@H]1CCCN1C(=O)[C@@H](CC(=O)O)NC(=O)[C@@H](Cc1c[nH]c2ccccc12)NC(=O)[C@H](NC(=O)[C@@H](CCCNC(=N)N)NC(=O)[C@H](NC(=O)[C@@H](CCC(=O)O)NC(=O)[C@@H](Cc1ccccc1)NC(=O)[C@@H](CO)NC(=O)[C@@H](CO)NC(=O)[C@@H](CO)NC(=O)[C@H](NC(=O)[C@@H](CCCCN)NC(=O)[C@H](N)[C@H](C)O)[C@H](C)O)C(C)C)[C@H](C)O)C(C)C)C(=O)N[C@H](Cc1ccccc1)C(=O)N[C@H](Cc1ccc(O)cc1)C(=O)O` [GP6]?
**A.** effectiveness in reducing the induced expression of ACC and PPARγ versus positive controls (HepG2 cells; GP6 10 or 40 μg/ml versus Telmisartan 5 μg/ml and Semaglutide 10 nM, 30 mM fructose): significantly much more effective than Telmisartan and Semaglutide; ACC mRNA levels induced by 30 mM fructose (HepG2 cells; GP6 10 or 40 μg/ml, daily): reducing mRNA levels; PPARγ mRNA levels induced by 30 mM fructose (HepG2 cells; GP6 10 or 40 μg/ml, daily): reducing mRNA levels; ACC mRNA levels in liver ([1]; vs vehicle): reduced the mRNA levels; F480 mRNA levels in adipose tissue ([1]; vs vehicle): reduced expression; F480 mRNA levels in hepatic tissue ([1]; vs vehicle): reduced expression; FAS mRNA levels in liver ([1]; vs vehicle): reduced the mRNA levels; PPARγ mRNA levels in liver ([1]; vs vehicle): reduced the mRNA levels; Total body weight ([1]; vs vehicle): significantly reduced; adipose tissue fibrosis (Col1A1 mRNA expression in adipose tissue) ([1]; vs vehicle): reduced adipose tissue fibrosis; hepatic expression of IL1β ([1]; vs vehicle): reduced the hepatic expression; hepatic expression of IL6 ([1]; vs vehicle): reduced the hepatic expression; hepatic expression of TNFα ([1]; vs vehicle): reduced the hepatic expression; total liver weight ([1]; vs vehicle): significantly reduced; weight increment (weight at week 8-weight at week 0) ([1]; vs vehicle): significantly reduced; weight of brown adipose tissue ([1]; vs vehicle): significantly reduced; weight of subcutaneous adipose tissue ([1]; vs vehicle): significantly reduced; weight of visceral adipose tissue ([1]; vs vehicle): significantly reduced; hepatic lipid accumulation (histology) ([1]; vs vehicle, H&E): reduced significantly; Brunt score [1, 2]: confirmed; Steatosis score [1, 2]: confirmed; percentage of steatosis [1, 2]: confirmed; hepatic triglyceride content (Liver TAG) ([1]; histology reduction confirmed): confirmed
